Source: ChEMBL document CHEMBL3045426, “Synthesis, Antiviral and Antibacterial Activities of Isatin Mannich Bases” (Med Chem Res, 2005)
Converted amounts (≈) assume the structure as drawn.

What was measured:
Citrobacter freundii = assay: Antimicrobial activity against Citrobacter freundii after 18 to 20 hr by agar dilution method; format: functional
Priestia megaterium = assay: Antimicrobial activity against Bacillus megaterium after 18 to 20 hr by agar dilution method; format: functional
Vibrio fluvialis = assay: Antimicrobial activity against Vibrio fluvialis after 18 to 20 hr by agar dilution method; format: functional
Vibrio parahaemolyticus = assay: Antimicrobial activity against Vibrio parahaemolyticus after 18 to 20 hr by agar dilution method; format: functional
[1] = test system: Mycobacterium tuberculosis; assay: Antimycobacterial activity against Mycobacterium tuberculosis H37Rv ATCC 27294 at 6.25 ug/ml by MABA; format: functional
Enterobacter = assay: Antimicrobial activity against Enterobacter after 18 to 20 hr by agar dilution method; format: functional
Salmonella paratyphi = assay: Antimicrobial activity against Salmonella enterica subsp. enterica serovar Paratyphi A after 18 to 20 hr by agar dilution method; format: functional
Pseudomonas aeruginosa = assay: Antimicrobial activity against Pseudomonas aeruginosa after 18 to 20 hr by agar dilution method; format: functional
Proteus mirabilis = assay: Antimicrobial activity against Proteus mirabilis after 18 to 20 hr by agar dilution method; format: functional
Salmonella typhi = assay: Antimicrobial activity against Salmonella enterica subsp. enterica serovar Typhi after 18 to 20 hr by agar dilution method; format: functional
Vibrio cholerae [2] = assay: Antimicrobial activity against Vibrio cholerae 01 after 18 to 20 hr by agar dilution method; format: functional; conditions: 1
[3] = test system: Human immunodeficiency virus 1; assay: Antiviral activity against Human immunodeficiency virus 1 IIIB infected CEM cells assessed as protection against viral infection after 6 days by XTT assay; format: functional, CCRF-CEM; parameters: concentration or dose not given beside the values
Shigella sonnei = assay: Antimicrobial activity against Shigella sonnei after 18 to 20 hr by agar dilution method; format: functional
Vibrio cholerae [4] = assay: Antimicrobial activity against Vibrio cholerae 0139 after 18 to 20 hr by agar dilution method; format: functional; conditions: 139
Salmonella enteritidis = assay: Antimicrobial activity against Salmonella enterica subsp. enterica serovar Enteritidis after 18 to 20 hr by agar dilution method; format: functional
Klebsiella pneumoniae [5] = assay: Antimicrobial activity against Klebsiella pneumoniae after 18 to 20 hr by agar dilution method; format: functional
Escherichia coli = assay: Antimicrobial activity against Escherichia coli NCTC 10418 after 18 to 20 hr by agar dilution method; format: functional
Proteus vulgaris = assay: Antimicrobial activity against Proteus vulgaris after 18 to 20 hr by agar dilution method; format: functional
[6] = test system: Human immunodeficiency virus 1; assay: Antiviral activity against Human immunodeficiency virus 1 IIIB infected MT4 cells assessed as inhibition of virus-induced cytopathicity after 5 days by MTT assay; format: functional, organism-based; conditions: MT4, 120 h
Plesiomonas = assay: Antimicrobial activity against Plesiomonas after 18 to 20 hr by agar dilution method; format: functional
Morganella morganii = assay: Antimicrobial activity against Morganella morganii after 18 to 20 hr by agar dilution method; format: functional
[7] = Cytotoxicity against Homo sapiens (human) CEM cells after 5 days by MTT assay; format: cell-based; conditions: CEM cells (CCRF-CEM)
Vibrio mimicus = assay: Antimicrobial activity against Vibrio mimicus after 18 to 20 hr by agar dilution method; format: functional
[8] = test system: Human immunodeficiency virus 1; assay: Antiviral activity against Human immunodeficiency virus 1 IIIB infected CEM cells assessed as inhibition of virus-induced cytopathicity after 6 days by XTT assay; format: functional, organism-based; conditions: CCRF-CEM, 144 h
[9] = test system: Human immunodeficiency virus 1; assay: Antiviral activity against Human immunodeficiency virus 1 IIIB infected MT4 cells assessed as protection against viral infection after 5 days by MTT assay; format: functional; parameters: concentration or dose not given beside the values
Edwardsiella tarda = assay: Antimicrobial activity against Edwardsiella tarda after 18 to 20 hr by agar dilution method; format: functional
[10] = Cytotoxicity against Homo sapiens (human) HuH7 cells assessed as cell growth at 50 ug/ml after 3 days by Neutral red assay; format: cell-based, Huh-7; conditions: read-out: Activity
[11] = Cytotoxicity against Homo sapiens (human) MT4 cells after 5 days by MTT assay; format: cell-based
Shigella boydii = assay: Antimicrobial activity against Shigella boydii after 18 to 20 hr by agar dilution method; format: functional
Klebsiella pneumoniae [12] = assay: Antimicrobial activity against Klebsiella pneumoniae subsp. ozaenae after 18 to 20 hr by agar dilution method; format: functional
Salmonella typhimurium = assay: Antimicrobial activity against Salmonella enterica subsp. enterica serovar Typhimurium after 18 to 20 hr by agar dilution method; format: functional
Hepatitis C virus = assay: Antiviral activity against Hepatitis C virus BM4-5 infected in Huh7 cells assessed as inhibition of viral RNA replication by phosphor screening method; format: functional, Hepacivirus hominis, Huh-7
Staphylococcus aureus = assay: Antimicrobial activity against Staphylococcus aureus after 18 to 20 hr by agar dilution method; format: functional

SMILES	MIC (Citrobacter freundii) [µg/mL]	MIC (Priestia megaterium) [µg/mL]	MIC (Vibrio fluvialis) [µg/mL]	MIC (Vibrio parahaemolyticus) [µg/mL]	inhibition at 6.25 µg/mL [1] [%]	MIC (Enterobacter) [µg/mL]	MIC (Salmonella paratyphi) [µg/mL]	MIC (Pseudomonas aeruginosa) [µg/mL]	MIC (Proteus mirabilis) [µg/mL]	MIC (Salmonella typhi) [µg/mL]	MIC (Vibrio cholerae [2]) [µg/mL]	Activity [3] [%]	MIC (Shigella sonnei) [µg/mL]	MIC (Vibrio cholerae [4]) [µg/mL]	MIC (Salmonella enteritidis) [µg/mL]	MIC (Klebsiella pneumoniae [5]) [µg/mL]	MIC (Escherichia coli) [µg/mL]	MIC (Proteus vulgaris) [µg/mL]	EC50 [6] [µg/mL]	MIC (Plesiomonas) [µg/mL]	other results
COc1cc(Cc2cnc(/N=C3\C(=O)N(CN4CCN(c5ccc(Cl)cc5)CC4)c4ccc(Cl)cc43)nc2N)cc(OC)c1OC	1250 (≈ 1890 µM)	1250 (≈ 1890 µM)	1250 (≈ 1890 µM)	2.44 (≈ 3.68 µM)	40	1250 (≈ 1890 µM)	625 (≈ 943 µM)	2500 (≈ 3770 µM)	1250 (≈ 1890 µM)	1250 (≈ 1890 µM)	4.88 (≈ 7.37 µM)	22.64	1250 (≈ 1890 µM)	1250 (≈ 1890 µM)	1250 (≈ 1890 µM)	1250 (≈ 1890 µM)	1250 (≈ 1890 µM)	1250 (≈ 1890 µM)	> 38.6	19.5 (≈ 29.5 µM)	MIC (Morganella morganii): 1250 µg/mL (≈ 1890 µM); CC50 at 120 h [7]: 40.1 µg/mL (≈ 60.5 µM); MIC (Vibrio mimicus): 9.76 µg/mL (≈ 14.7 µM); EC50 [8]: > 40.1 µg/mL; Activity [9]: 32.6%; MIC (Edwardsiella tarda): 625 µg/mL (≈ 943 µM); viability at 72 h, 50 ug/ml [10]: 56%; CC50 at 120 h [11]: 38.6 µg/mL (≈ 58.3 µM); MIC (Shigella boydii): 39.1 µg/mL (≈ 59 µM); MIC (Klebsiella pneumoniae [12]): 1250 µg/mL (≈ 1890 µM); MIC (Salmonella typhimurium): 1250 µg/mL (≈ 1890 µM); inhibition (INH) (Hepatitis C virus): 99%; MIC (Staphylococcus aureus): 1250 µg/mL (≈ 1890 µM)
COc1cc(Cc2cnc(/N=C3\C(=O)N(CN4CCC(C)CC4)c4ccc(Cl)cc43)nc2N)cc(OC)c1OC	312 (≈ 553 µM)	625 (≈ 1110 µM)	1250 (≈ 2210 µM)	2.44 (≈ 4.32 µM)	15	1250 (≈ 2210 µM)	312 (≈ 553 µM)	1250 (≈ 2210 µM)	1250 (≈ 2210 µM)	1250 (≈ 2210 µM)	4.88 (≈ 8.64 µM)	22.07	1250 (≈ 2210 µM)	1250 (≈ 2210 µM)	1250 (≈ 2210 µM)	1250 (≈ 2210 µM)	1250 (≈ 2210 µM)	1250 (≈ 2210 µM)	> 67.4	39.1 (≈ 69.1 µM)	MIC (Morganella morganii): 1250 µg/mL (≈ 2210 µM); CC50 at 120 h [7]: 46.3 µg/mL (≈ 81.9 µM); MIC (Vibrio mimicus): 1.22 µg/mL (≈ 2.16 µM); EC50 [8]: > 46.3 µg/mL; Activity [9]: 41.7%; MIC (Edwardsiella tarda): 1250 µg/mL (≈ 2210 µM); viability at 72 h, 50 ug/ml [10]: 108%; CC50 at 120 h [11]: 67.4 µg/mL (≈ 119 µM); MIC (Shigella boydii): 4.88 µg/mL (≈ 8.64 µM); MIC (Klebsiella pneumoniae [12]): 625 µg/mL (≈ 1110 µM); MIC (Salmonella typhimurium): 1250 µg/mL (≈ 2210 µM); inhibition (INH) (Hepatitis C virus): 81%; MIC (Staphylococcus aureus): 1250 µg/mL (≈ 2210 µM)
COc1cc(Cc2cnc(/N=C3\C(=O)N(CN4CCN(Cc5ccccc5)CC4)c4ccc(Cl)cc43)nc2N)cc(OC)c1OC	625 (≈ 973 µM)	625 (≈ 973 µM)	625 (≈ 973 µM)	9.76 (≈ 15.2 µM)	50	625 (≈ 973 µM)	625 (≈ 973 µM)	1250 (≈ 1950 µM)	625 (≈ 973 µM)	625 (≈ 973 µM)	4.88 (≈ 7.6 µM)	22.33	1250 (≈ 1950 µM)	625 (≈ 973 µM)	625 (≈ 973 µM)	625 (≈ 973 µM)	625 (≈ 973 µM)	625 (≈ 973 µM)	> 36.1	39.1 (≈ 60.8 µM)	MIC (Morganella morganii): 625 µg/mL (≈ 973 µM); CC50 at 120 h [7]: 94.7 µg/mL (≈ 147 µM); MIC (Vibrio mimicus): 2.44 µg/mL (≈ 3.8 µM); EC50 [8]: > 94.7 µg/mL; Activity [9]: 41.8%; MIC (Edwardsiella tarda): 625 µg/mL (≈ 973 µM); viability at 72 h, 50 ug/ml [10]: 79%; CC50 at 120 h [11]: 36.1 µg/mL (≈ 56.2 µM); MIC (Shigella boydii): 39.1 µg/mL (≈ 60.8 µM); MIC (Klebsiella pneumoniae [12]): 1250 µg/mL (≈ 1950 µM); MIC (Salmonella typhimurium): 625 µg/mL (≈ 973 µM); inhibition (INH) (Hepatitis C virus): 66%; MIC (Staphylococcus aureus): 625 µg/mL (≈ 973 µM)
COc1cc(Cc2cnc(/N=C3\C(=O)N(CN4CCN(c5cccc(Cl)c5)CC4)c4ccc(Cl)cc43)nc2N)cc(OC)c1OC	1250 (≈ 1890 µM)	1250 (≈ 1890 µM)	625 (≈ 943 µM)	1.22 (≈ 1.84 µM)	44	625 (≈ 943 µM)	1250 (≈ 1890 µM)	156 (≈ 236 µM)	1250 (≈ 1890 µM)	1250 (≈ 1890 µM)	0.61 (≈ 0.921 µM)	23	1250 (≈ 1890 µM)	625 (≈ 943 µM)	1250 (≈ 1890 µM)	1250 (≈ 1890 µM)	1250 (≈ 1890 µM)	1250 (≈ 1890 µM)	> 39.2	19.5 (≈ 29.5 µM)	MIC (Morganella morganii): 1250 µg/mL (≈ 1890 µM); CC50 at 120 h [7]: 34.4 µg/mL (≈ 51.9 µM); MIC (Vibrio mimicus): 9.76 µg/mL (≈ 14.7 µM); EC50 [8]: > 34.4 µg/mL; Activity [9]: 20.9%; MIC (Edwardsiella tarda): 1250 µg/mL (≈ 1890 µM); viability at 72 h, 50 ug/ml [10]: 67%; CC50 at 120 h [11]: 39.2 µg/mL (≈ 59.2 µM); MIC (Shigella boydii): 19.5 µg/mL (≈ 29.5 µM); MIC (Klebsiella pneumoniae [12]): 1250 µg/mL (≈ 1890 µM); MIC (Salmonella typhimurium): 625 µg/mL (≈ 943 µM); inhibition (INH) (Hepatitis C virus): 96%; MIC (Staphylococcus aureus): 1250 µg/mL (≈ 1890 µM)
